Consider three molecules from patent publication US8969055B2 (priority 2009, dated 2015).

The subject of series [1] is 4KO E. coli strain. As to conditions: for E. coli Growth Rate (μ): 4KO E. coli, BFM + betaine, 30° C.
Method: From a frozen vial, 25 mL of seed culture was grown in Difco LB broth, Miller medium, purchased from BD Laboratories (Becton & Dickinson and Company, Sparks, Md., 21152, USA) at 30° C., 200 RPM. […] Samples were withdrawn at defined time points to monitor biomass growth as measured by OD600. Growth rates were calculated from the biomass time profiles by fitting exponential growth rate equations.
For series [2] the following is noted: Example 3 fermentation, oleyl alcohol. The method, then:
Filter sterilized solutions of ampicillin, thiamine hydrochloride, and glucose were added to the fermentor medium, post sterilization, to a final concentration of 100 mg/L, 5 mg/L and 20 g/L respectively. Fermentations were run using a 1 L autoclavable bioreactor, Bio Console ADI 1025 (Applikon, Inc, Holland) with a working volume of 900 mL. The temperature was maintained at 30° C. during the entire fermentation and the pH was maintained at 6.8 using ammonium hydroxide. Following inoculation of the sterile fermentation medium with seed culture (2-10 vol %), the fermentor was operated aerobically at a 30% dissolved oxygen (DO) set point with 0.3 vvm of air flow by automatic control of the agitation rate (rpm). […] Four hours post induction, fermentation conditions were switched to microaerobic conditions by decreasing the airflow to 0.13 slpm and setting the DO set point to 3-5%. […] Glucose was added as a bolus (50 wt % stock solution) to the fermentor on a need basis to keep levels of glucose between 20 g/L and 2 g/L.
Glucose levels were monitored using HPLC and YSI as described above herein.

For series [3] the following is noted: oleyl alcohol/BFM, 30° C.
From the text: The aqueous and organic phases in each flask were separated by decantation.
Each data point corresponding to a specified level of electrolyte as shown in Table 3 and Table 4 was repeated twice and values for Kp reported as the average of the two flasks.
Series [4] can be described thus: Activity of enzyme expressed from sadB gene in cell-free extracts of Mach1/pTrc99a::sadB. The format is biochemical, Achromobacter xylosoxidans. As to conditions: isobutyraldehyde as the standard. On the procedure:
The sadB coding region was then cloned into the vector pTrc99a (Amann et al., Gene 69: 301-315, 1988). The pCR4Blunt::sadB was digested with EcoRI, releasing the sadB fragment, which was ligated with EcoRI-digested pTrc99a to generate pTrc99a::sadB. This plasmid was transformed into E. coli Mach 1 cells and the resulting transformant was named Mach1/pTrc99a::sadB. The activity of the enzyme expressed from the sadB gene in these cells was determined to be 3.5 mmol/min/mg protein in cell-free extracts when analyzed using isobutyraldehyde as the standard.

Read-outs that look alike come from different tables or passages of the source.

Consider `O=S(=O)([O-])[O-].[Na+].[Na+]` [Na2SO4, Sodium sulfate], for which, in series [1] (1M salt concentration), the “drop in growth rate” value was “greater than 80%”. Also, the “E. coli Growth Rate (μ)” value in series [1] (Na2SO4 added 0.03 mole/L, total salts 0.17 moles/L) came out at 0.79 h⁻¹; in series [1] (Na2SO4 added 0.07 mole/L, total salts 0.21 moles/L), 0.79 h⁻¹; in series [1] (Na2SO4 added 0.15 mole/L, total salts 0.29 moles/L) it was 0.79 h⁻¹; in series [1] (Na2SO4 added 0.22 mole/L, total salts 0.36 moles/L), 0.74 h⁻¹; in series [1] (Na2SO4 added 0.29 mole/L, total salts 0.43 moles/L), 0.69 h⁻¹; in series [1] (Na2SO4 added 0.44 mole/L, total salts 0.58 moles/L) it was 0.60 h⁻¹. Also, the “E. coli Growth Rate (μ)” value in series [1] (Na2SO4 added 0.67 mole/L, total salts 0.81 moles/L) is 0.55 h⁻¹; in series [1] (Na2SO4 added 1.00 mole/L, total salts 1.14 moles/L) it was 0.14 h⁻¹; in series [1] (Na2SO4 added 1.33 mole/L, total salts 1.47 moles/L) it was “Negligible growth”; in series [1] (Na2SO4 added 2.00 mole/L, total salts 2.14 moles/L) it was “Negligible Growth”. The “loss of growth rate compared to no electrolyte control” value in series [1] (about 0.67 M Na2SO4 (total salt level of 0.81 M)) is given as 30%.
As to Isobutanol, the “Kp [Conc in OA phase]/[Conc in Aq Phase]” value in series [2] (Na2SO4 added 0 moles/L, total salts 0.05 moles/L) was 3.1; in series [2] (Na2SO4 added 0.28 moles/L, total salts 0.33 moles/L), 4.5; in series [2] (Na2SO4 added 0.42 moles/L, total salts 0.47 moles/L) it was 5.4. Also, the Kp in series [3] (Na2SO4 added 0.00 moles/L, total salts 0.14 moles/L) is 4.80; in series [3] (Na2SO4 added 0.03 moles/L, total salts 0.17 moles/L), 5.03; in series [3] (Na2SO4 added 0.07 moles/L, total salts 0.21 moles/L) it was 5.25; in series [3] (Na2SO4 added 0.15 moles/L, total salts 0.29 moles/L), 5.78; in series [3] (Na2SO4 added 0.22 moles/L, total salts 0.36 moles/L), 6.37; in series [3] (Na2SO4 added 0.29 moles/L, total salts 0.43 moles/L), 7.12. The Kp in series [3] (Na2SO4 added 0.44 moles/L, total salts 0.58 moles/L) was determined as 8.34; in series [3] (Na2SO4 added 0.67 moles/L, total salts 0.81 moles/L), 10.50; in series [3] (Na2SO4 added 1.00 moles/L, total salts 1.14 moles/L) it was 15.95; in series [3] (Na2SO4 added 1.33 moles/L, total salts 1.47 moles/L), 24.68; in series [3] (Na2SO4 added 2.00 moles/L, total salts 2.14 moles/L), 60.99; in series [3] (NaCl added 0.00 moles/L, total salt 0.14 moles/L), 4.87. Also, the Kp in series [3] (NaCl added 0.01 moles/L, total salt 0.15 moles/L) worked out at 4.87; in series [3] (NaCl added 0.04 moles/L, total salt 0.18 moles/L), 4.89; in series [3] (NaCl added 0.07 moles/L, total salt 0.21 moles/L) it was 4.95; in series [3] (NaCl added 0.11 moles/L, total salt 0.25 moles/L), 5.00; in series [3] (NaCl added 0.14 moles/L, total salt 0.28 moles/L) it was 5.00; in series [3] (NaCl added 0.21 moles/L, total salt 0.35 moles/L), 5.22. In addition, the Kp in series [3] (NaCl added 0.33 moles/L, total salt 0.47 moles/L) came to 5.04; in series [3] (NaCl added 0.67 moles/L, total salt 0.81 moles/L) it was 5.91; in series [3] (NaCl added 1.00 moles/L, total salt 1.14 moles/L), 6.88; in series [3] (NaCl added 1.33 moles/L, total salt 1.47 moles/L), 8.06.

B1: enzyme expressed from the sadB gene: butanol dehydrogenase from Achromobacter xylosoxidans (protein SEQ ID NO: 10) (protein)
chain: MKALVYHGDHKISLEDKPKPTLQKPTDVVVRVLKTTICGTDLGIYKGKNPEVADGRILGHEGVGVIEEVGESVTQFKKGDKVLISCVTSCGSCDYCKKQLYSHCRDGGWILGYMIDGVQAEYVRIPHADNSLYKIPQTIDDEIAVLLSDILPTGHEIGVQYGNVQPGDAVAIVGAGPVGMSVLLTAQFYSPSTIIVIDMDENRLQLAKELGATHTINSGTENVVEAVHRIAAEGVDVAIEAVGIPATWDICQEIVKPGAHIANVGVHGVKVDFEIQKLWIKNLTITTGLVNTNTTPMLMKVASTDKLPLKKMITHRFELAEIEHAYQVFLNGAKEKAMKIILSNAGAA
modifications: Achromobacter xyloxidans
Regarding B1, the “activity of the enzyme” value in series [4] came out at 3.5 mmol/min/mg protein.
